Laboratory results as given in BindingDB's records for doi:10.1016/0014-2999(93)90076-T (University of North Carolina, 1993).

The compounds below were run against T1, D1 dopamine receptor (Macaca fascicularis, UniProt Q5I6B7).
T1 sequence (Q5I6B7 whole entry): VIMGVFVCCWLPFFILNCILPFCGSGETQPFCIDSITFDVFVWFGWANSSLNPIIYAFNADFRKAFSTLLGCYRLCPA

Structure (SMILES) | Ki [nM]
Oc1cc2c(cc1O)[C@@H](c1ccccc1)CNCC2 | 106
Oc1cc2c(cc1O)[C@@H]1c3ccccc3CN[C@@H]1CC2 [(+/-)-trans-10,11-dihydroxy-5,6,6a,7,8,12b-hexahydrobenzo[a]phenanthridine] | 20.2
CN1CCc2cc(Cl)c(O)cc2[C@@H](c2ccccc2)C1 [SCH 23390,R(+)] | 1.3
